According to patent US9890171B2, “Aldosterone synthase inhibitors” (Boehringer Ingelheim International GmbH, priority 2014, dated 2018):

target: aldosterone synthase (CYP11B2) (Macaca fascicularis, UniProt A0A2K5UPL9); assay: aldosterone synthase inhibition assay; assay type: biochemical, cynomolgus monkey; conditions: cynomolgus adrenal gland mitochondria, 2 μM corticosterone, aldosterone quantified by mass spectrometry
How it was run: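 Cynomolgus adrenal mitochondria ([…]) used as CYP11B2 source with 2 μM corticosterone in 100 mM potassium phosphate pH 7.4, 1% DMSO; reaction started with 1 mM NADPH, run 60-90 min at 37° C. Aldosterone measured by mass spectrometry; IC50 from 4-parameter logistic fit, no-NADPH blank as 0%.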

Sequence of aldosterone synthase (CYP11B2) (A0A2K5UPL9 1-503): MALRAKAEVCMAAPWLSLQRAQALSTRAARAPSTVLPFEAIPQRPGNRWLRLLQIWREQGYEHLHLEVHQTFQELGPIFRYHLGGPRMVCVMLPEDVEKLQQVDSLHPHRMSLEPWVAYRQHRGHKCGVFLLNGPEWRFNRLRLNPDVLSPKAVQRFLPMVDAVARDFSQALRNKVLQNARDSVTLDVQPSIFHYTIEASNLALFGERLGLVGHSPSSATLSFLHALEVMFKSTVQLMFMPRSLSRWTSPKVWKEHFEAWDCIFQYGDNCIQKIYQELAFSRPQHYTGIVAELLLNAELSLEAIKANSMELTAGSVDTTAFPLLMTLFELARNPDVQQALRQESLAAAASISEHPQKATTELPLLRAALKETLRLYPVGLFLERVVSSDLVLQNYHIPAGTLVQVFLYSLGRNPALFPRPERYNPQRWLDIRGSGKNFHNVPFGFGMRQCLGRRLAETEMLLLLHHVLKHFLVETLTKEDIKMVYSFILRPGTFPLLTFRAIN

SMILES	IC50
O=C1NCCc2ccc(-c3cncc4c3COCC4O)cc21 (single isomer, unassigned) [Compound 119, 7-(4-Hydroxy-3,4-dihydro-1H-pyrano[4,3-c]pyridin-8-yl)-3,4-dihydro-2H-isoquinolin-1-one]	960 nM
CCS(=O)(=O)NC1COCc2c(-c3ccc4[nH]nc(C)c4c3)cncc21 (single isomer, unassigned) [Compound 69, Ethanesulfonic acid [8-(3-methyl-1H-indazol-5-yl)-3,4-dihydro-1H-pyrano[4,3-c]pyridin-4-yl]-amide]	84.6 nM
CC(C)Oc1nc(-c2cncc3c2COCC3O)cs1 (single isomer, unassigned) [Compound 8, 8-(2-Isopropoxy-thiazol-4-yl)-3,4-dihydro-1H-pyrano[4,3-c]pyridin-4-ol]	3700 nM
O=C1NCCc2cc(-c3cncc4c3COC3(CC3)C4O)ccc21 (single isomer, unassigned) [Compound 85, 6-[4-hydroxyspiro[1,4-dihydropyrano[4,3-c]pyridine-3,1′-cyclopropane]-8-yl]-3,4-dihydro-2H-isoquinolin-1-one]	90.9 nM
OC1COCc2c(-c3ccc4cn[nH]c4c3)cncc21 (single isomer, unassigned) [Compound 37, 8-(1H-Indazol-6-yl)-3,4-dihydro-1H-pyrano[4,3-c]pyridin-4-ol]	94.4 nM
OC1COCc2c(-c3ccn4ccnc4c3)cncc21 (single isomer, unassigned) [Compound 101, 8-Imidazo[1,2-a]pyridin-7-yl-3,4-dihydro-1H-pyrano[4,3-c]pyridin-4-ol]	225 nM
CCC(=O)NC1COCc2c(-c3ccc4cnn(C)c4c3)cncc21 (single isomer, unassigned) [Compound 76, N-[8-(1-Methyl-1H-indazol-6-yl)-3,4-dihydro-1H-pyrano[4,3-c]pyridin-4-yl]-propionamide]	17.9 nM
Cn1ncc2ccc(-c3cncc4c3COCC4O)cc21 (single isomer, unassigned) [Compound 44, 8-(1-Methyl-1H-indazol-6-yl)-3,4-dihydro-1H-pyrano[4,3-c]pyridin-4-ol]	8.5 nM
Cn1ncc2ccc(-c3cncc4c3COCC4N)cc21 (single isomer, unassigned) [Compound 71, 8-(1-Methyl-1H-indazol-6-yl)-3,4-dihydro-1H-pyrano[4,3-c]pyridin-4-ylamine]	22.2 nM
OC1COCc2c(-c3ccc4cnccc4c3)cncc21 (single isomer, unassigned) [Compound 45, 8-Isoquinolin-6-yl-3,4-dihydro-1H-pyrano[4,3-c]pyridin-4-ol]	5.8 nM
CCS(=O)(=O)NC1COCc2c(-c3ccc4c(cnn4C)c3)cncc21 (single isomer, unassigned) [Compound 82, Ethanesulfonic acid [8-(1-methyl-1H-indazol-5-yl)-3,4-dihydro-1H-pyrano[4,3-c]pyridin-4-yl]-amide]	215 nM
OC1COCc2c(-c3cnn(C4CC4)c3)cncc21 (single isomer, unassigned) [Compound 46, 8-(1-Cyclopropyl-1H-pyrazol-4-yl)-3,4-dihydro-1H-pyrano[4,3-c]pyridin-4-ol]	302 nM
CCC(=O)NC1COCc2c(-c3ccc4[nH]nc(C)c4c3)cncc21 (single isomer, unassigned) [Compound 61, N-[8-(3-Methyl-1H-indazol-5-yl)-3,4-dihydro-1H-pyrano[4,3-c]pyridin-4-yl]-propionamide]	36.2 nM
OC1COCc2c(-c3ccn4ccnc4c3)cncc21 (single isomer, unassigned) [Compound 99, 8-Imidazo[1,2-a]pyridin-7-yl-3,4-dihydro-1H-pyrano[4,3-c]pyridin-4-ol]	5000 nM
OC1COCc2c(-c3ccc4scnc4c3)cncc21 (single isomer, unassigned) [Compound 33, 8-Benzothiazol-5-yl-3,4-dihydro-1H-pyrano[4,3-c]pyridin-4-ol]	40.5 nM
OC1COCc2c(-c3ccc4c(c3)OCCO4)cncc21 (single isomer, unassigned) [Compound 38, 8-(2,3-Dihydro-benzo[1,4]dioxin-6-yl)-3,4-dihydro-1H-pyrano[4,3-c]pyridin-4-ol]	12 nM
O=C1CCc2cc(-c3cncc4c3COCC4O)ccc2N1 (single isomer, unassigned) [Compound 2, 6-(4-Hydroxy-3,4-dihydro-1H-pyrano[4,3-c]pyridin-8-yl)-3,4-dihydro-1H-quinolin-2-one]	101 nM
Cn1ncc2cc(F)c(-c3cncc4c3COCC4O)cc21 (single isomer, unassigned) [Compound 18, 8-(5-Fluoro-1-methyl-1H-indazol-6-yl)-3,4-dihydro-1H-pyrano[4,3-c]pyridin-4-ol]	20.1 nM
Cc1noc2ccc(-c3cncc4c3COC3(CC3)C4O)cc12 (single isomer, unassigned) [Compound 114, 8-(3-methyl-1,2-benzoxazol-5-yl)spiro[1,4-dihydropyrano[4,3-c]pyridine-3,1′-cyclopropane]-4-ol]	18.8 nM
Cc1ncc2ccc(-c3cncc4c3COCC4O)cn12 (single isomer, unassigned) [Compound 87, 8-(3-Methyl-imidazo[1,5-a]pyridin-6-yl)-3,4-dihydro-1H-pyrano[4,3-c]pyridin-4-ol]	123 nM
Cc1noc2ccc(-c3cncc4c3COCC4O)cc12 (single isomer, unassigned) [Compound 94, 8-(3-Methyl-benzo[d]isoxazol-5-yl)-3,4-dihydro-1H-pyrano[4,3-c]pyridin-4-ol]	10.1 nM
OC1COCc2c(-c3ccc4[nH]ncc4c3)cncc21 (single isomer, unassigned) [Compound 47, 8-(1H-Indazol-5-yl)-3,4-dihydro-1H-pyrano[4,3-c]pyridin-4-ol]	50 nM
Cc1ncc2ccc(-c3cncc4c3COCC4O)cn12 (single isomer, unassigned) [Compound 86, 8-(3-Methyl-imidazo[1,5-a]pyridin-6-yl)-3,4-dihydro-1H-pyrano[4,3-c]pyridin-4-ol]	494 nM

The remaining lines, values ahead:

IC50	SMILES
1470 nM	OC1CCOc2ccc(-c3cncc4c3COCC4O)cc21 (single isomer, unassigned) [Compound 131, 8-(4-Hydroxy-chroman-6-yl)-3,4-dihydro-1H-pyrano[4,3-c]pyridin-4-ol]
496 nM	CC1(C)COc2ccc(-c3cncc4c3COCC4O)cc21 (single isomer, unassigned) [Compound 182, 8-(3,3-Dimethyl-2,3-dihydro-benzofuran-5-yl)-3,4-dihydro-1H-pyrano[4,3-c]pyridin-4-ol]
71.4 nM	NC(=O)N1CCCc2cc(-c3cncc4c3C(O)COC4)cnc21 (single isomer, unassigned) [Compound 162, 6-(4-Hydroxy-3,4-dihydro-1H-pyrano[3,4-c]pyridin-5-yl)-3,4-dihydro-2H-[1,8]naphthyridine-1-carboxylic acid amide]
22 nM	OC1COCc2c(-c3ccc4c(c3)COCC4(F)F)cncc21 (single isomer, unassigned) [Compound 199, 8-(4,4-Difluoro-isochroman-7-yl)-3,4-dihydro-1H-pyrano[4,3-c]pyridin-4-ol]
124 nM	CCS(=O)(=O)NC1COCc2c(-c3ccc4c(c3)CCC4O)cncc21 (stereo not shown) [Compound 184, Ethanesulfonic acid [8-(1-hydroxy-indan-5-yl)-3,4-dihydro-1H-pyrano[4,3-c]pyridin-4-yl]-amide]
51.1 nM	NC(=O)N1CCCc2cc(-c3cncc4c3C(O)COC4)cnc21 (stereo not shown) [Compound 160, 6-(4-Hydroxy-3,4-dihydro-1H-pyrano[3,4-c]pyridin-5-yl)-3,4-dihydro-2H-[1,8]naphthyridine-1-carboxylic acid amide]
15 nM	Cn1nc(C#N)c2ccc(-c3cncc4c3COCC4(C)O)cc21 (single isomer, unassigned) [Compound 178, 6-(4-Hydroxy-4-methyl-3,4-dihydro-1H-pyrano[4,3-c]pyridin-8-yl)-1-methyl-1H-indazole-3-carbonitrile]
95 nM	O=C1NCCc2cc(-c3cncc4c3COCC4O)ccc21 (single isomer, unassigned) [Compound 121, 6-(4-Hydroxy-3,4-dihydro-1H-pyrano[4,3-c]pyridin-8-yl)-3,4-dihydro-2H-isoquinolin-1-one]
27.9 nM	CCC(=O)NC1COCc2c(-c3ccc4c(c3)C(F)(F)CCO4)cncc21 (single isomer, unassigned) [Compound 143, N-[8-(4,4-Difluoro-chroman-6-yl)-3,4-dihydro-1H-pyrano[4,3-c]pyridin-4-yl]-propionamide]
36.5 nM	Cn1ncc2ccc(-c3cncc4c3C(O)COC4)cc21 (single isomer, unassigned) [Compound 166, 5-(1-Methyl-1H-indazol-6-yl)-3,4-dihydro-1H-pyrano[3,4-c]pyridin-4-ol]
13.4 nM	Cn1ncc2c(F)cc(-c3cncc4c3COCC4(C)O)cc21 (single isomer, unassigned) [Compound 176, 8-(4-Fluoro-1-methyl-1H-indazol-6-yl)-4-methyl-3,4-dihydro-1H-pyrano[4,3-c]pyridin-4-ol]
340 nM	Cn1ncc2c(C#N)cc(-c3cncc4c3COCC4(C)O)cc21 (single isomer, unassigned) [Compound 173, 6-(4-Hydroxy-4-methyl-3,4-dihydro-1H-pyrano[4,3-c]pyridin-8-yl)-1-methyl-1H-indazole-4-carbonitrile]
16.3 nM	O=C1CCOc2cc(-c3cncc4c3COCC4O)ccc21 (single isomer, unassigned) [Compound 123, 7-(4-Hydroxy-3,4-dihydro-1H-pyrano[4,3-c]pyridin-8-yl)-chroman-4-one]
19 nM	Cn1nnc2ccc(-c3cncc4c3COC3(CC3)C4O)cc21 (single isomer, unassigned) [Compound 198, 8-(3-methylbenzotriazol-5-yl)spiro[1,4-dihydropyrano[4,3-c]pyridine-3,1′-cyclopropane]-4-ol]
